# Results from PubChem BioAssay (NCI).
# Several values for one entry are separate records, joined by “and”; a condition that tells them apart may be missing. Equal values may be shown once.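 96-well plates; 48 h exposure; 5 concentrations. Endpoints by linear interpolation between flanking doses. Not reached: highest tested concentration assigned. At the GI50, growth is halved. TGI: total growth inhibition.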
# Legend:
# Test in all cases: NCI tumour cell line growth inhibition, 48 h
# SK-MEL-28 melanoma = tested on: SK-MEL-28 melanoma
# EKVX NSCLC = tested on: EKVX NSCLC
# MDA-MB-435 = tested on: MDA-MB-435
# NCI-H23 lung = tested on: NCI-H23 lung
# SF-268 CNS = tested on: SF-268 CNS
# SF-295 CNS = tested on: SF-295 CNS
# M14 melanoma = tested on: M14 melanoma
# SF-539 CNS = tested on: SF-539 CNS
# SNB-19 CNS = tested on: SNB-19 CNS
# HT29 colon = tested on: HT29 colon
Compound,GI50 (SK-MEL-28 melanoma),TGI (SK-MEL-28 melanoma),GI50 (EKVX NSCLC),TGI (EKVX NSCLC),GI50 (MDA-MB-435),TGI (MDA-MB-435),GI50 (NCI-H23 lung),TGI (NCI-H23 lung),GI50 (SF-268 CNS),TGI (SF-268 CNS),GI50 (SF-295 CNS),TGI (SF-295 CNS),GI50 (M14 melanoma),TGI (M14 melanoma),GI50 (SF-539 CNS),TGI (SF-539 CNS),GI50 (SNB-19 CNS),TGI (SNB-19 CNS),GI50 (HT29 colon),TGI (HT29 colon)
Cc1cc(-c2cc(O)ccc2Cl)cc2nnc(Nc3ccc(OCCN4CCCC4)cc3)nc12,0.292 µM,0.843 µM,1.57 µM,3.27 µM,0.175 µM,0.321 µM,0.812 µM,2.48 µM,1.99 µM,3.91 µM,1.7 µM,3.32 µM,0.326 µM,1.19 µM,1.04 µM,2.32 µM,0.659 µM,1.23 µM,1.93 µM,3.91 µM
CC(=O)c1cc(C(=O)c2ccc3c(c2)Sc2ccccc2N3)n2ccccc12,–,> 33.2 µM,0.0291 µM and 0.00498 µM,> 33.2 µM,0.0018 µM and < 0.00332 µM,0.00453 µM and < 0.00332 µM,0.00773 µM and 0.00332 µM,> 33.2 µM,–,> 33.2 µM,0.00284 µM,0.076 µM,0.00338 µM and 0.00332 µM,> 33.2 µM,0.00278 µM and 0.00332 µM,0.00949 µM and 0.0103 µM,0.00824 µM,–,0.0035 µM and 0.00332 µM,–
COc1cc(C2c3cc4c(cc3C(OC(=O)C[n+]3ccccc3)C3COC(=O)C23)OCO4)cc(OC)c1OC (configuration not stated),53 µM,> 100 µM,0.436 µM,> 100 µM,< 0.01 µM,< 0.01 µM,< 0.0217 µM,> 100 µM,< 0.0208 µM,> 100 µM,< 0.0164 µM,> 100 µM,< 0.017 µM,> 100 µM,< 0.0154 µM,< 0.0278 µM,< 0.0265 µM,> 100 µM,< 0.01 µM,> 100 µM
C#CCN(c1ccc(C(=O)N[C@@H](CCC(=O)N[C@H](CCC(=O)O)C(=O)O)C(=O)O)cc1)C1CCc2cc3nc(CO)[nH]c(=O)c3cc21 (some centres not stated),> 100 µM,> 100 µM,> 100 µM,> 100 µM,> 74.5 µM,> 100 µM,49.1 µM,> 100 µM,5.94 µM,> 100 µM,5.01 µM,> 72.3 µM,7.97 µM,> 100 µM,4.38 µM,> 100 µM,> 73.5 µM,> 100 µM,> 100 µM,> 100 µM
Clc1ccccc1-c1nnc2c(Cc3ccccc3)nc3ccccc3n12,> 48.8 µM,> 100 µM,12.7 µM,> 100 µM,> 100 µM,> 100 µM,> 100 µM,> 100 µM,7.15 µM,> 100 µM,8.12 µM,> 100 µM,> 60.5 µM,> 100 µM,24.2 µM,> 100 µM,36.3 µM,> 100 µM,8.71 µM,> 100 µM
CC1=CC(C)(C)NN1C1=NS(=O)(=O)c2ccccc2N1C,–,> 100 µM,–,> 100 µM,–,> 100 µM,–,> 100 µM,–,> 100 µM,–,> 100 µM,–,> 100 µM,–,> 100 µM,–,> 100 µM,–,> 100 µM
Cn1cc(-c2cnn3c(N)c(Br)c(C4CCCNC4)nc23)cn1 (configuration not stated),24.3 µM,> 100 µM,10.4 µM,70 µM,0.754 µM,> 57.8 µM,0.546 µM,> 81.6 µM,15.2 µM,> 100 µM,0.527 µM,> 44.4 µM,0.325 µM,16.8 µM,0.285 µM,3.88 µM,18.4 µM,> 100 µM,4.19 µM,> 73 µM
Cn1c2c(c3c(Cl)nncc31)Cc1ccccc1-2,30.2 µM,> 100 µM,5.79 µM,44.3 µM,29.7 µM,> 100 µM,18.7 µM,49 µM,25.9 µM,> 100 µM,17.5 µM,66.7 µM,28.1 µM,> 100 µM,20 µM,76.1 µM,12.9 µM,51.1 µM,16.9 µM,44.5 µM
O=C1C=CC(=O)c2c(O)c3c(c(O)c21)C[C@H](O)[C@H](O)[C@@H]3O,–,5.38 µM,–,6.15 µM,–,3.13 µM,–,4.67 µM,–,8.02 µM,–,20.3 µM,–,3.86 µM,–,9.16 µM,–,26.9 µM,–,5.83 µM
COC(=O)c1cc2c3ccccc3n3c2c(n1)-c1[nH]c2ccccc2c(=O)c1C3,> 100 µM,> 100 µM,79 µM,> 100 µM,> 100 µM,> 100 µM,38.9 µM,> 100 µM,29.6 µM,> 100 µM,32 µM,> 100 µM,> 100 µM,> 100 µM,20.3 µM,77.6 µM,26.3 µM,> 100 µM,> 100 µM,> 100 µM
CCCCCCCC/C=C/CCCCCCCC1=NC(C)(C)CN1CCO,1.89 µM,3.39 µM,3.55 µM,12.8 µM,1.73 µM,3.41 µM,1.84 µM,3.7 µM,1.46 µM,2.78 µM,1.73 µM,3.36 µM,1.74 µM,3.21 µM,1.68 µM,3.07 µM,6.26 µM,21.5 µM,1.51 µM,3.1 µM
c1ccc(CNCCN(CCNCc2ccccn2)Cc2ccc3ccccc3c2)nc1,1.75 µM,3.36 µM,1.71 µM,7.58 µM,1.99 µM,4.08 µM,2.26 µM,6.19 µM,2.89 µM,12.3 µM,1.42 µM,3.55 µM,1.64 µM,3.39 µM,1.64 µM,3.1 µM,2.68 µM,8.95 µM,3.04 µM,7.93 µM
COc1ccc([C@@]23Oc4cc(OC)cc(OC)c4[C@]2(O)[C@H](O)[C@H](C(N)=O)[C@H]3c2ccccc2)cc1,< 0.0116 µM,–,–,0.108 µM and 0.158 µM,–,0.0793 µM and 0.631 µM,–,0.0769 µM and 0.0157 µM,< 0.0113 µM,0.0913 µM and < 0.01 µM,–,0.0456 µM and < 0.01 µM,–,0.0233 µM and < 0.01 µM,–,0.0193 µM,–,0.0999 µM,–,0.0659 µM and 0.0515 µM
O=c1c(Cl)c(Cl)cnn1CCCl,–,4.99 µM,–,15.9 µM,–,10.6 µM,–,6.46 µM,–,14.1 µM,–,31.4 µM,–,11.3 µM,–,29.5 µM,–,16.4 µM,–,10.8 µM
